# Measured values: PubChem BioAssay AID1963847 (Molecular Pharmacology Branch, DTP, NCI, 2024)
# Tested on: 415267-285-R-J2-PDC complex spheroid viability
# Test: Anticancer human tumor 415267-285-R-J2-PDC patient-derived breast carcinoma cell line growth inhibition [POLQ]
# Details: for IC50: curve of first compound; for viability, T/C: stronger effect = lower value
# In short: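 PDC + HUVEC + MSC complex spheroids; POLQ inhibitors ± partner drugs; top conc. at/near clinical Cmax, else 10 microM (SN-38 1 microM), half-log dilutions; 37 degrees C, 5% CO2.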
# [1] = second compound 0.0316 µM, first compound 0.0316 µM
# [2] = second compound 0.0316 µM, first compound 0.1 µM
# [3] = second compound 0.0316 µM, first compound 0.316 µM
# [4] = second compound 0.0316 µM, first compound 1 µM
# [5] = second compound 0.0316 µM, first compound 3.16 µM
# [6] = second compound 0.0316 µM, first compound 10 µM
# [7] = second compound 0.1 µM, first compound 0.0316 µM
# [8] = second compound 0.1 µM, first compound 0.1 µM
# [9] = second compound 0.1 µM, first compound 0.316 µM
# [10] = second compound 0.1 µM, first compound 1 µM
# [11] = second compound 0.1 µM, first compound 3.16 µM
# [12] = second compound 0.1 µM, first compound 10 µM
# [13] = second compound 0.316 µM, first compound 0.0316 µM
# [14] = second compound 0.316 µM, first compound 0.1 µM
# [15] = second compound 0.316 µM, first compound 0.316 µM
# [16] = second compound 0.316 µM, first compound 1 µM
# [17] = second compound 0.316 µM, first compound 3.16 µM
# [18] = second compound 0.316 µM, first compound 10 µM
# [19] = second compound 1 µM, first compound 0.0316 µM
# [20] = second compound 1 µM, first compound 0.1 µM
# [21] = second compound 1 µM, first compound 0.316 µM
# [22] = second compound 1 µM, first compound 1 µM
# [23] = second compound 1 µM, first compound 3.16 µM
# [24] = second compound 1 µM, first compound 10 µM
# [25] = second compound 3.16 µM, first compound 0.0316 µM
# [26] = second compound 3.16 µM, first compound 0.1 µM
# [27] = second compound 3.16 µM, first compound 0.316 µM
# [28] = second compound 3.16 µM, first compound 1 µM
# [29] = second compound 3.16 µM, first compound 3.16 µM
# [30] = second compound 3.16 µM, first compound 10 µM
# [31] = second compound 10 µM, first compound 0.0316 µM
# [32] = second compound 10 µM, first compound 0.1 µM
# [33] = second compound 10 µM, first compound 0.316 µM
# [34] = second compound 10 µM, first compound 1 µM
# [35] = second compound 10 µM, first compound 3.16 µM
# [36] = second compound 10 µM, first compound 10 µM
# 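Also: spheroids exposed to compounds for one week before readout.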
# 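For viability, T/C in this document: luminescence used as stand-in measure of viable cells; 100% = DMSO vehicle control viability.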
structure (smiles),measurement,setting,value
O=c1[nH]cc(F)c(=O)[nH]1 + Cc1cccc(N(C)C(=O)C2C(O)CCN2c2nc(C)cc(C(F)(F)F)c2C#N)c1,IC50,second compound 0.0316 µM,222 nM
same,IC50,second compound 0.1 µM,207 nM
same,IC50,second compound 0.316 µM,203 nM
same,IC50,second compound 1 µM,181 nM
same,IC50,second compound 3.16 µM,192 nM
same,IC50,second compound 10 µM,179 nM
same,"viability, T/C",[1],87.3%
same,"viability, T/C",[2],83.9%
same,"viability, T/C",[3],35.1%
same,"viability, T/C",[4],30.1%
same,"viability, T/C",[5],27.6%
same,"viability, T/C",[6],43%
same,"viability, T/C",[7],97.1%
same,"viability, T/C",[8],72.6%
same,"viability, T/C",[9],37.3%
same,"viability, T/C",[10],27.2%
same,"viability, T/C",[11],28%
same,"viability, T/C",[12],39%
same,"viability, T/C",[13],98.8%
same,"viability, T/C",[14],72%
same,"viability, T/C",[15],36.9%
same,"viability, T/C",[16],26.6%
same,"viability, T/C",[17],26.8%
same,"viability, T/C",[18],36.1%
same,"viability, T/C",[19],100%
same,"viability, T/C",[20],64.8%
same,"viability, T/C",[21],36.7%
same,"viability, T/C",[22],28.5%
same,"viability, T/C",[23],25.6%
same,"viability, T/C",[24],35.4%
same,"viability, T/C",[25],95.8%
same,"viability, T/C",[26],67.9%
same,"viability, T/C",[27],36.6%
same,"viability, T/C",[28],28.8%
same,"viability, T/C",[29],33.5%
same,"viability, T/C",[30],33.6%
same,"viability, T/C",[31],92.1%
same,"viability, T/C",[32],64.5%
same,"viability, T/C",[33],36.3%
same,"viability, T/C",[34],26.8%
same,"viability, T/C",[35],24.7%
same,"viability, T/C",[36],29.4%
Nc1ccn(C2OC(CO)C(O)C2(F)F)c(=O)n1 (centres undefined) + Cc1cccc(N(C)C(=O)C2C(O)CCN2c2nc(C)cc(C(F)(F)F)c2C#N)c1,IC50,second compound 0.0316 µM,< 31.6 nM
same,IC50,second compound 0.1 µM,< 31.6 nM
same,IC50,second compound 0.316 µM,< 31.6 nM
same,IC50,second compound 1 µM,< 31.6 nM
same,IC50,second compound 3.16 µM,< 31.6 nM
same,IC50,second compound 10 µM,< 31.6 nM
same,"viability, T/C",[1],8.22%
same,"viability, T/C",[2],6.11%
same,"viability, T/C",[3],5.62%
same,"viability, T/C",[4],4.61%
same,"viability, T/C",[5],5.96%
same,"viability, T/C",[6],5.35%
same,"viability, T/C",[7],8.77%
same,"viability, T/C",[8],5.43%
same,"viability, T/C",[9],6.85%
same,"viability, T/C",[10],5.22%
same,"viability, T/C",[11],6.13%
same,"viability, T/C",[12],4.79%
same,"viability, T/C",[13],8.5%
same,"viability, T/C",[14],6.58%
same,"viability, T/C",[15],5.69%
same,"viability, T/C",[16],5.62%
same,"viability, T/C",[17],6.58%
same,"viability, T/C",[18],6.07%
same,"viability, T/C",[19],12.5%
same,"viability, T/C",[20],6.12%
same,"viability, T/C",[21],5.2%
same,"viability, T/C",[22],5.51%
same,"viability, T/C",[23],5.07%
same,"viability, T/C",[24],5.32%
same,"viability, T/C",[25],7.95%
same,"viability, T/C",[26],5.96%
same,"viability, T/C",[27],5.8%
same,"viability, T/C",[28],4.93%
same,"viability, T/C",[29],5.53%
same,"viability, T/C",[30],5.95%
same,"viability, T/C",[31],9.14%
same,"viability, T/C",[32],6.37%
same,"viability, T/C",[33],6.58%
same,"viability, T/C",[34],5.23%
same,"viability, T/C",[35],6.03%
same,"viability, T/C",[36],5.65%
